Laboratory results reported in US11382873B1, “Oral administration of ketamine” (Vitalis Analgesics LLC, priority 2021, dated 2022).
Like-named read-outs stand apart in the source and are kept apart here.

Legend:
[1] = tested on: adult emergency department (ED) patients with acute musculoskeletal pain; assay: Reduction of acute musculoskeletal pain (NRS) in adult ED patients, trial of Example 1/5; details: NRS 0-10, 60 minutes post medication; doses of Table 1 (dual route ketamine 0.5 mg/kg + aspirin 325 mg; IV ketamine 0.3 mg/kg; IV morphine 0.1 mg/kg; MSIR 15 mg; Percocet 10 mg); comparators from similar trials, same center and protocol; FIG. 1
[2] = cited from earlier work
[3] = cited from earlier work; remark: listed apart in the source

SMILES: CN1CC[C@]23c4c5ccc(O)c4O[C@H]2[C@@H](O)C=C[C@H]3[C@H]1C5 [IV morphine, Morphine]
- Reduction of acute musculoskeletal pain [1]: 5.1 points

SMILES: CNC1(c2ccccc2Cl)CCCCC1=O (stereo not drawn) [intranasal (nebulized) ketamine, ketamine]
- Reduction of acute musculoskeletal pain [1]: about 4 points

SMILES: CNC1(c2ccccc2Cl)CCCCC1=O (stereo not drawn) [ketamine]
- Bioavailability ([2]; IV): about 100%
- Elimination half-life ([2]; in vivo): 2 to 3 h
- Bioavailability ([2]; intramuscular injection): about 93%
- Delay of serum peak concentration, GI absorption versus direct (oral mucosal) absorption ([2]; ketamine given concurrently through the GI, patent's own reasoning, no PK data shown): 15 to 20 min
- Bioavailability ([2]; oral route): 18-20%
- Time at which maximal concentrations are reached ([2]; orally): 30 min

SMILES: NC1(c2ccccc2Cl)CCCCC1=O (stereo not drawn) [norketamine]
- Plasma levels of the metabolite relative to ketamine ([2]; following oral administration of ketamine): three times higher

SMILES: CC(C)Cc1ccc(C(C)C(=O)O)cc1 (stereo not drawn) [oral ibuprofen, Ibuprofen]
- Reduction of acute musculoskeletal pain [1]: 2 points

SMILES: CN1CC[C@]23c4c5ccc(O)c4O[C@H]2[C@@H](O)C=C[C@H]3[C@H]1C5.O=S(=O)(O)O [oral morphine, Morphine Sulfate]
- Reduction of acute musculoskeletal pain [1]: about 4 points

SMILES: N[C@@H]1c2cccnc2[C@H](OC(=O)N2CCC(n3c(=O)[nH]c4ncccc43)CC2)CC[C@H]1c1cccc(F)c1F [rimegepant, Rimegepant]
- Absolute oral bioavailability ([3]; in vivo, po): approximately 64%
- Eliminated in unchanged form ([3]; in vivo): ~77 % of the dose
- Major metabolites (i.e., >10%) detected in plasma ([3]; in vivo): no major metabolites
- Time of maximum concentration ([3]; oral administration of NURTEC Orally Disintegrating Tablet): 1.5 h
